Test results as given in patent publication US20260153494A1 (AGRICUL TURAL UNIVERSITY OF ATHENS, priority 2023, published 2026).
Residue numbers refer to the chain shown, from its start.

Tests used:
[1] = tested on: Immobilized FGGsh155:CB[8] hexamer (GSTF mutant sh155, FGG-tagged, SEQ ID NO: 2, with cucurbit[8]uril 1:1, on glutaraldehyde-crosslinked chitosan); format: biochemical
Method: Initially, 2%, 3% and 4% (w/v) medium molecular weight chitosan (molecular weight of 190 to 310 kDa) was dissolved by continuous stirring in 2% (v/v) acetic acid. The formed chitosan gels were stored at 4° C. until the following day (12 to 24 hours) in order to remove any trapped air. For the immobilisation, 180 mg of chitosan gel were deposited by a syringe at the bottom of a cuvette with 4 mL capacity. Then 50 μL of different concentrations of GA solution [0.4%, 0.5%, 0.6%, 0.7%, and 1% (v/v)] were added and the mixture was lightly stirred with a pipette tip. The carrier mixture was left for an hour so that the reaction of GA binding to the amino groups of the carrier was accomplished. GA was diluted in 20 mM KH2PO4, PH 7.0. Afterwards, the carrier was washed thrice with 2 mL 20 mM KH2PO4, PH 7, in order to remove any unbound GA molecules. The immobilization of FGGsh155:CB[8] was performed five days after the addition of the CB[8] macrocyclic agent at stoichiometry of 1:1, for uniformity of the experiments. Thus, 600 μL of the enzyme solution with 0.7-0.8 mg/mL concentration were added to the activated chitosan medium. The enzyme was incubated with the carrier at 25° C. overnight with stirring at 50-80 rpm. The following day, the volume of the enzyme solution that wasn't absorbed by the carrier was removed and the carrier was incubated with 600 μL of 2 mg/mL NaBH4 solution for 30 min. This step was conducted in order to stabilize the Schiff's bases that form due to the reaction of GA with the enzyme amino groups (Barbosa et al., 2014). Finally, three washes were performed with 20 mM KH2PO4, PH 7, for the removal of any unbound enzyme. Protein binding efficiency to the carrier (%) and retention of enzyme activity (%) were defined as: […]
Determination of the enzyme activity for the immobilised enzyme complex FGGsh155:CB[8] was performed using the CDNB/GSH substrate system with 20 mM KH2PO4, PH 7, as a reaction solution at 37° C., as has been previously described (Georgakis et al., 2020a; Axarli et al., 2017; Cho et al., 2005). The rate assay was recorded for 300 s at 340 nm.
Kinetic analysis for GSH was performed using standard CDNB concentration (1 mM) and varying GSH concentrations. Correspondingly, standard concentration of GSH substrate (2.5 mM) and varying concentrations of CDNB were utilised in the kinetic analysis for CDNB.
The kinetic parameters of the immobilized FGGsh155:CB[8] were calculated using the CDNB/GSH substrate system in 20 mM KH2PO4, PH 7.0, at 37° C. (FIG. 20) depicts the dependence of the enzyme's reaction rate on the substrate concentration. […] Respectively the kinetic analysis for GSH was carried with standard CDNB concentration (1 mM) and different GSH concentrations. […] The reduction in kcat is usually expected after immobilization (Neira & Herr, 2017).

[2] = tested on: FGGsh155 (phi class glutathione S-transferase GSTF mutant sh155, derived by DNA shuffling, with N-terminal FGG tag, SEQ ID NO: 2); format: biochemical
Method: (§1) GST activity assays were carried by using the 1-chloro-2,4-dinitrobenzene (CDNB)/glutathione (GSH) substrate system as described previously (Axarli et al., 2017; Georgakis et al., 2020). Determination of enzyme activity was conducted using 1 mM CDNB and 2.5 mM GSH final concentration in 0.1 M KH2PO4, PH 6.5 and 37° C. Kinetic analysis of the potential supramolecular protein complexes was performed as previously described (Axarli et al., 2016, Georgakis et al., 2020) five days after addition of CB[8] to the enzyme solution in 1:1 stoichiometry. Protein precipitates were removed by centrifugation at 10,000 rpm for 10 min prior to the analysis. The steady state data were processed using GraphPad Prism version 7 (GraphPad Prism Software, Inc.). Turnover numbers were evaluated for one active site per subunit of enzyme. Specific activity (SA) was estimated in micromoles per minute per milligram of protein (μmol min-1 mg-1). Determination of protein concentration was carried using the Bradford assay with bovine serum albumin as standard (Bradford, 1976).
(§2) The kinetic parameters of FGGsh101 and FGGsh155 were analyzed both in absence of CB[8] and five days after the addition of the macrocyclic host in 1:1 ratio. […] (see Example 3)

[3] = tested on: FGGsh155:CB[8] hexamer (FGG-tagged phi class glutathione S-transferase GSTF mutant sh155, SEQ ID NO: 2, with cucurbit[8]uril 1:1); format: biochemical
Method: as §1, §2

[4] = tested on: FGGsh101:CB[8] (FGG-tagged phi class glutathione S-transferase GSTF mutant sh101, SEQ ID NO: 1, with cucurbit[8]uril 1:1); format: biochemical
Method: as §1, §2

[5] = tested on: FGGsh101 (phi class glutathione S-transferase GSTF mutant sh101, derived by DNA shuffling, with N-terminal FGG tag, SEQ ID NO: 1); format: biochemical
Method: as §1, §2

[6] = Thermal stability (Tm) by differential scanning fluorimetry; format: physicochemical; conditions: for second distinct melting point Tm2 / increase in Tm1: after addition of CB[8]; for increase in Tm1: versus Tm0, especially 1:1 stoichiometry
Method: The thermostability of FGG-GSTFs, FGGsh101 and FGGsh155 was assessed by differential scanning fluorimetry (DSF) in the presence of the macrocyclic compound CB[8]. CB[8] was added in stoichiometry of 1:1 and 2:1 enzyme to host concentration. The reaction was performed in 50 mM KH2PO4 solution, pH 7.14, using either 15 μM enzyme and 15 μM CB[8] (1:1) or 15 μM enzyme and 7.5 μM CB[8] (2:1). A “control” reaction for each ratio was also measured, where only CB[8]'s solvent of was added to the enzyme. Differential scanning fluorimetry was performed in 20 mM KH2PO4 buffer, pH 7, with 4 μg of protein sample, according to published methods (Huynh & Partch, 2015). Thermal shift assays we carried using a Real-time PCR StepOne™ instrument (Applied Biosystems, USA) and the SYPRO Orange protein dye at a temperature range between 15° C. and 99° C. with a ramping rate of 1%. Temperature of protein denaturation midpoint (Tm) was estimated by the first derivative of the normalized fluorescence data.

[7] = Steady-state kinetic analysis of FGG-GSTFs, CDNB/GSH substrate system; format: biochemical; conditions: for catalytic constant: enzyme samples with CB[8] in 1:1 stoichiometry; for kcat: free enzyme
Method: as §1
The kinetic parameters of FGGsh101 and FGGsh155 were analyzed both in absence of CB[8] and five days after the addition of the macrocyclic host in 1:1 ratio. This was determined according to the fluorescence intensity monitoring experiments, where the reduction of fluorescence emission appeared to reach a plateau after 4-5 days. (see Example 3)

[8] = Enzyme stability upon storage at 4° C. (retention of activity); format: physicochemical; conditions: first twenty days
Method: Enzymatic stability was determined as the retention of enzyme activity overtime upon storage at 4° C. for the FGGsh155:CB[8] before and after immobilization, as well as the unmodified form of FGGsh155. Monitoring of the enzyme inactivation was determined using the CDNB/GSH substrate system.

[9] = CDNB/GSH substrate system, pH 6.5, 37° C., one active site per subunit

## O=[N+]([O-])c1ccc(Cl)c([N+](=O)[O-])c1 [CDNB, 1-chloro-2,4-dinitrobenzene]
[1]; 20 mM KH2PO4, pH 7.0, 37° C.
  kcat/S0.5 CDNB: 19 M⁻¹ s⁻¹
[1]; CDNB variable, GSH 2.5 mM, pH 7.0, 37° C.
  nH (Hill coefficient): 1.47 ± 0.12
[1]; CDNB/GSH substrate system, 20 mM KH2PO4, pH 7.0, 37° C.
  kcat: 0.0213 ± 0.002 s⁻¹
[2]; CDNB variable, pH 6.5, 37° C.
  nH (Hill coefficient): 1.01 ± 0.03
[2]; [9]
  kcat: 2.807 ± 0.0453 s⁻¹
[2]; pH 6.5, 37° C.
  kcat/S0.5 CDNB: 3645 M⁻¹ s⁻¹
[3]; free enzyme, CDNB variable, five days after CB[8] addition 1:1, pH 6.5, 37° C.
  nH (Hill coefficient): 1.01 ± 0.02
[3]; free enzyme, CDNB/GSH substrate system, five days after CB[8] addition 1:1, pH 6.5, 37° C.
  kcat: 2.02 ± 0.019 s⁻¹
[3]; free enzyme, GSH at fixed concentration, five days after CB[8] addition 1:1, pH 6.5, 37° C.
  S0.5 CDNB: 0.81 ± 0.05 mM
[3]; free enzyme, five days after CB[8] addition 1:1, pH 6.5, 37° C.
  kcat/S0.5 CDNB: 2489.7 M⁻¹ s⁻¹
[4]; CDNB variable, five days after CB[8] addition 1:1, pH 6.5, 37° C.
  nH (Hill coefficient): 1.1 ± 0.06
[4]; CDNB/GSH substrate system, five days after CB[8] addition 1:1, pH 6.5, 37° C.
  kcat: 2.248 ± 0.0547 s⁻¹
[4]; five days after CB[8] addition 1:1, pH 6.5, 37° C.
  kcat/S0.5 CDNB: 4014.8 M⁻¹ s⁻¹
[5]; CDNB variable, pH 6.5, 37° C.
  nH (Hill coefficient): 1.17 ± 0.03
[5]; [9]
  kcat: 2.657 ± 0.0202 s⁻¹
[5]; pH 6.5, 37° C.
  kcat/S0.5 CDNB: 6625.2 M⁻¹ s⁻¹

## N[C@@H](CCC(=O)N[C@@H](CS)C(=O)NCC(=O)O)C(=O)O [GSH, glutathione]
[1]; 20 mM KH2PO4, pH 7.0, 37° C.
  kcat/Km GSH: 16.8 M⁻¹ s⁻¹
[1]; CDNB 1 mM, 20 mM KH2PO4, pH 7.0, 37° C., read-out: Km GSH
  Km: 1260 ± 80 µM
[2]; pH 6.5
  kcat/Km GSH: 1896.3 M⁻¹ s⁻¹
[2]; pH 6.5, read-out: Km GSH
  Km: 1480 ± 30 µM
[3]; pH 6.5
  kcat/Km GSH: 1410 M⁻¹ s⁻¹
[3]; pH 6.5, read-out: Km GSH
  Km: 1430 ± 30 µM
[4]; pH 6.5
  kcat/Km GSH: 1594 M⁻¹ s⁻¹
[4]; pH 6.5, read-out: Km GSH
  Km: 1410 ± 50 µM
[5]; pH 6.5
  kcat/Km GSH: 1978 M⁻¹ s⁻¹
[5]; pH 6.5, read-out: Km GSH
  Km: 1360 ± 20 µM

B1: sh101: phi class cytosolic glutathione S-transferase mutant from DNA shuffling, without FGG tag (protein)
chain: MFGGAPVKVFGPAMSTNVARVTLCLEEVGAEYEVVNIDFNTMEHKSPEHLARNPFGQIPAFQDGDLLLWESRAISKYVLRKYKTDEVDLLREGNLKEAAMVDVWTEYDAHTYNPALSPIVYECLINPLMRGLPTNQTVVDESLEKLKKVLEVYEARLSQHKYLAGDFVSFADLNHFPYTFYFMATPHAALFDSYPHVKAWWDRLMARPAVKKIAATMVPPKA
[6]; 1:1 and 2:1, almost ten days
  effect of CB[8] addition on Tm of enzyme forms that weren't FGG-tagged: did not induce the appearance of an additional Tm value

B2: FGGsh155: phi class GST mutant sh155 (SEQ ID NO: 2) with N-terminal phenylalanine-glycine-glycine tag; dimer (protein)
chain: B1 chain with N36D, N40K, T41A, A51V, W69F, S75A
modifications: N-terminal FGG tag; dimer
[7]
  catalytic constant: 121 ± 1.14 min⁻¹
  kcat: 2.807 ± 0.0453 s⁻¹
[6]
  second distinct melting point Tm2: ≈ 85 °C
  increase in Tm1: up to 3.5 °C
[8]
  retained activity: approximately 50%

B3: FGGsh101: phi class GST mutant sh101 (SEQ ID NO: 1) with N-terminal phenylalanine-glycine-glycine tag; dimer (protein)
chain: B1 chain
modifications: N-terminal FGG tag; dimer
[7]
  catalytic constant: 134.9 ± 3.28 min⁻¹
  kcat: 2.657 ± 0.0202 s⁻¹
[6]
  second distinct melting point Tm2: ≈ 85 °C
  increase in Tm1: 1.5-2 °C
